Experiments:
HL-60 = experiment: Growth inhibition of human HL-60 cells after 96 hrs by MTT assay; format: functional, cell-based; conditions: HL-60, 96 h
THP-1 = experiment: Growth inhibition of human THP-1 cells after 96 hrs by MTT assay; format: functional, cell-based; conditions: THP-1, 96 h

- IC50 (HL-60): 6.2 µM
- IC50 (THP-1): 2 µM
SMILES: CO[C@@H]1[C@H]2[C@H](O)O[C@@]3([C@@H](OC(C)=O)C/C(C)=C/[C@H]1OC)[C@@H]2CC3(C)C

Source: ChEMBL document CHEMBL4699577, “Highly Oxygenated Caryophyllene-Type Sesquiterpenes from a Plant-Associated Fungus, Pestalotiopsis hainanensis, and Their Biosynthetic Gene Cluster” (J Nat Prod, 2020)
